The record followed here is article PMC7862923 (Nature chemical biology, 2020).

What all share (assay type): cell-based
In one experiment the target is BRAF(V600E) (Homo sapiens, UniProt P15056, V600E). Put plainly: Immunoblot of BRAF protein levels in A375 cells. As to conditions: 24 h.
The target of another experiment is BRAF(WT) (Homo sapiens, UniProt P15056). Kind of experiment: Immunoblot of BRAF levels in HCT116 cells. As to conditions: KRAS(G13D), 24h.
For the next experiment, the system named is A375 cells. Put plainly: RNAseq transcriptome analysis. The following applies: 200nM, 20 hours.
The subject of the next experiment is pMEK and pERK levels. Kind of experiment: Pathway signaling. The following applies: A375 cells, 100 nM, 24 h.
The test system of a further experiment is pERK. Put plainly: pERK AlphaLISA in MeWo cells.
The next experiment deals with HCT116 cell line. Put plainly: Proliferation and pathway signaling. The following applies: HCT116, KRAS(G13D).

Sequence of BRAF(V600E) (P15056 whole entry V600E): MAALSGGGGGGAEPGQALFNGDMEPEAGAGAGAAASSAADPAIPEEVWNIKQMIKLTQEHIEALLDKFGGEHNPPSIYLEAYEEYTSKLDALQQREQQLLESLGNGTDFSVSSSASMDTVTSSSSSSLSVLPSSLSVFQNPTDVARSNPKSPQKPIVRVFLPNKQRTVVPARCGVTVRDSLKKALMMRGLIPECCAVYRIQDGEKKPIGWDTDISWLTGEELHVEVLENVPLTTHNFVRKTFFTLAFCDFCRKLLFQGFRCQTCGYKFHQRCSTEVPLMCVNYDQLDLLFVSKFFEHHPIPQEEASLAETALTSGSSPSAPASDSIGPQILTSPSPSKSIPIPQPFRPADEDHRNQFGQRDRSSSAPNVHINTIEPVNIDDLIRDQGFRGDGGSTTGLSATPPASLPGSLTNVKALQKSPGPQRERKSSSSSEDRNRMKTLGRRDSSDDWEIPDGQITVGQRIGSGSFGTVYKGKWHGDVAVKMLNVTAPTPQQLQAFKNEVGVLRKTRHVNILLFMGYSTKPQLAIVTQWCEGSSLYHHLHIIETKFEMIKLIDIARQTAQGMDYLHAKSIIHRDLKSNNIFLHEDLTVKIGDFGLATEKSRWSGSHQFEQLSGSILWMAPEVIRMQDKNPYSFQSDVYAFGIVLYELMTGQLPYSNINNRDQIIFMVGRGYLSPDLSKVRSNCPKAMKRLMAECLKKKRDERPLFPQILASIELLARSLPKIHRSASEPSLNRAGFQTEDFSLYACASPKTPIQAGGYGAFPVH
Sequence of BRAF(WT) (P15056 whole entry): as the sequence (P15056 whole entry V600E) above, with E600V counted along it

`CCCS(=O)(=O)Nc1ccc(F)c(-n2cc(-c3cncnc3)c3nc(N(C)C4CCN(CC)CC4)ccc32)c1F` [BI 882370*]: the “reduction of BRAF(V600E) protein levels” value on BRAF(V600E) (100 nM) is “no effect on BRAF(V600E) levels”. The “ability to reduce BRAF levels” value on BRAF(WT) was “no ability to reduce BRAF levels”. In the experiment on A375 cells, the “number of genes altered (differentially expressed)” value is reported as 195. Moreover, the “repression of pathway signaling” value in the experiment with pMEK and pERK levels is “comparable to P4B and P5B”. For the same compound, the “effect on ERK activation (pERK)” value with pERK is recorded as “induced paradoxical ERK activation”. Further, the “inhibiting cell proliferation and pathway signaling” value in the experiment with HCT116 cell line was “equally ineffective”.

Turning to `Nc1cccc2c1C(=O)N(C1CCC(=O)NC1=O)C2=O` (stereo not shown) [pomalidomide], the “effect on BRAF protein levels (degrader function)” value at BRAF(V600E) is “failed to reduce BRAF protein levels”.
